Laboratory results published in patent US20030225007A1, “Sulfonamide derivatives of 3-substituted imidazol[1,2-d]-1,2,4-thiadiazoles and 3-substituted-[1,2,4] thiadiazolo[4,5-a] benzimidazole as inhibitors of fibrin cross-linking and transglutaminases” (Apotex Inc., priority 2002, published 2003).

Target: T1, Factor XIIIa (activated FXIII) (Homo sapiens, UniProt P00488)
T1 construct: purchased Enzyme Research Laboratories, Ltd
T1 sequence (P00488 39-732 limits assumed): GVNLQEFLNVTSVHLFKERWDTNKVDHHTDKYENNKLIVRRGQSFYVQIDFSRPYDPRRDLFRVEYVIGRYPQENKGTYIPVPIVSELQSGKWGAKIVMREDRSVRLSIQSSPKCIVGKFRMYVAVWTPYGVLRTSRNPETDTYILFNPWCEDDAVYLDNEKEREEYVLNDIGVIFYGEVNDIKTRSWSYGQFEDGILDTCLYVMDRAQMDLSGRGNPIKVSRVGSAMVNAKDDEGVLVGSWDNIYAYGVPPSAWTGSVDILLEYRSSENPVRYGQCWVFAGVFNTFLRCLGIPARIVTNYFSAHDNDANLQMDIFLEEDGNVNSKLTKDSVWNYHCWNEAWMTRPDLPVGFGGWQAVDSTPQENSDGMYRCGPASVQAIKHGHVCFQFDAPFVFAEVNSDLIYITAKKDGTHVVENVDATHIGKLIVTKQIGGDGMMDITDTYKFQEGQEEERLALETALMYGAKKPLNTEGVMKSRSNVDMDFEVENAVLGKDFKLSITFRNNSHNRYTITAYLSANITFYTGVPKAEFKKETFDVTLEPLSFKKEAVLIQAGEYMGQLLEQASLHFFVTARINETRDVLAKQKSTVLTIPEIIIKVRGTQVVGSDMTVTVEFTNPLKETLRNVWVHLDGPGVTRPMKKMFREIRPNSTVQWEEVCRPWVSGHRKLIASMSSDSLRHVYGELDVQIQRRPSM
Experiment: Inactivation of purified Factor XIIIa (monodansylcadaverine incorporation into dimethylcasein, fluorescence)
Type: biochemical
Conditions: for IC50: purified activated FXIII, 50% enzyme inactivation after 5-min incubation with inhibitor at 37° C. in the absence of substrate, read-out: FXIIIa (IC50 in μM)
Experimental: FXIII (0.5 mg/mL, Enzyme Research Laboratories, Ltd.) in 50 mM Tris-HCl pH 7.5 containing 100 mM NaCl, 40 mM CaCl2, 1 mM EDTA and 0.1% poly(ethylene glycol) (app. MW=8000) was activated by incubation with 10 NIH units/mL of human thrombin (Calbiochem) at 37° C. for 20 min. Thrombin was quenched with 20 NIH units/mL of hirudin from Leech (Sigma).
Inhibitor solution in DMSO (14 μL) was added to 120 μL of 250 mM Tris-Cl pH 7.5 containing 40 mM CaCl2 and 1 mM EDTA and the solution was incubated at 37° C. for two minutes. Activated FXIII (5 μL, 0.5 mg/mL) was added and the mixture was incubated at 37° C. for 5 min.
An assay mixture composed of 50 mM Tris-Cl pH 8.0, 10 mM CaCl2, 1 mM EDTA, 0.1% poly(ethylene glycol) (app. MW=1000) and 20 μM monodansylcadaverine was prepared in a spectrofluorometric cell in a final volume of 2880 μL. Dimethylcasein (8 μL, 1% in 50 mM sodium phosphate pH 7.5) was added and the solution was incubated at 37° C. for a few minutes. To assay the residual enzyme activity, 120 μL of the solution containing the enzyme and the inhibitor was transferred to the assay mixture. The covalent incorporation of monodansylcadaverine into casein was monitored by an increase in fluorescence at λexc=360 nm and λem=500 nm as previously described (Curtis, C. G.; Lorand, L. Methods Enzymol. 1976, 45, 177-191). To determine uninhibited enzyme activity, DMSO was used in place of inhibitor solution in the above assay. IC50 were determined by plotting the percent of remaining enzyme activity against logarithm of inhibitor concentration. IC50 is defined here as an inhibitor concentration resulting in 50% enzyme inactivation after 5-min incubation of the enzyme with the inhibitor in the absence of the substrate. Second order rate constants for inactivation were determined using method described by Kitz and Wilson (Kitz, R.; Wilson, I. J. Biol. Chem. 1962, 237, 3245).

| Compound | IC50 [µM] | kinact/KI (purified Factor XIIIa, method of Kitz and Wilson, read-out: Second order rate constant for inactivation) [M⁻¹ s⁻¹] |
| --- | --- | --- |
| 4-benzyl-{N^ε-imidazo[1,2-d][1,2,4]thiadiazol- 3-yl-N^α-[(4- methylphenyl)sulfonyl]lysyl}piperidine | 5.6 | – |
| NC(=O)CN(CCCCCCNc1nsc2nccn12)S(=O)(=O)c1cccc2ccccc12 [1 / NH2 / 1-naphthyl, N^2-[6-(imidazo[1,2-d][1,2,4]thiadiazol-3-ylamino)hexyl]-N^2-(1-naphthylsulfonyl)glycinamide] | 6 | – |
| CCOC(=O)CN(CCCCCCNc1nsc2nccn12)S(=O)(=O)c1cccc2ccccc12 [1 / OEt / 1-naphthyl, Ethyl N-[6-(imidazo[1,2-d][1,2,4]thiadiazol-3-ylamino)hexyl]-N-(1-naphthylsulfonyl) glycinate] | 7.4 | – |
| O=C(O)CN(CCCCCCNc1nsc2nccn12)S(=O)(=O)c1cccc2ccccc12 [1 / OH / 1-naphthyl, N-[6-(imidazo[1,2-d][1,2,4]thiadiazol-3-ylamino)hexyl]-N-(1-naphthylsulfonyl)glycine] | 6.8 | – |
| NC(=O)CCN(CCCCCCNc1nsc2nccn12)S(=O)(=O)c1ccc(F)cc1F [2 / NH2 / 2-F-4-F-Ph, N^3-[(2,4-difluorophenyl)sulfonyl]-N^3-[6-(imidazo[1,2-d][1,2,4]thiadiazol-3-ylamino)hexyl]-β-alaninamide] | 8.9 | – |
| CCOC(=O)CCN(CCCCCCNc1nsc2nccn12)S(=O)(=O)c1ccc(F)cc1F [2 / OEt / 2-F-4-F-Ph, Ethyl N-[(2,4-difluorophenyl)sulfonyl]-N-[6-(imidazo[1,2-d][1,2,4]thiadiazol-3-ylamino)hexyl]-β-alaninate] | 6.8 | – |
| Cc1cc(C)c(S(=O)(=O)NCCCCCCNc2nsc3nccn23)c(C)c1 [2,4,6-TriMe-Ph, N-[6-(imidazo[1,2-d][1,2,4]thiadiazol-3-ylamino)hexyl]-2,4,6-trimethylbenzenesulfonamide] | 1.3 | – |
| O=S(=O)(NCCCCCCNc1nsc2nccn12)c1ccc(Br)cc1Br [2,4-dibromo-N-[6-(imidazo[1,2-d][1,2,4]thiadiazol-3-ylamino)hexyl]benzenesulfonamide] | – | 13000 |
| N#Cc1ccccc1S(=O)(=O)NCCCCCCNc1nsc2nccn12 [2-CN-Ph, 2-cyano-N-[6-(imidazo[1,2-d][1,2,4]thiadiazol-3-ylamino)hexyl]benzenesulfonamide] | 2.7 | – |
| NC(=O)c1ccccc1S(=O)(=O)NCCCCCCNc1nsc2nccn12 [2-CONH2-Ph, 2-({[6-(imidazo[1,2-d][1,2,4]thiadiazol-3-ylamino)hexyl]amino}sulfonyl)benzamide] | 3 | – |
| CNC(=O)c1ccccc1S(=O)(=O)NCCCCCCNc1nsc2nccn12 [2-CONHMe-Ph, 2-({[6-(imidazo[1,2-d][1,2,4]thiadiazol-3-ylamino)hexyl]amino}sulfonyl)-N-methylbenzamide] | 13.8 | – |
| O=C(O)c1ccccc1S(=O)(=O)NCCCCCCNc1nsc2nccn12 [2-COOH-Ph, 2-carboxy-N-[6-(imidazo[1,2-d][1,2,4]thiadiazol-3-ylamino)hexyl]benzenesulfonamide] | 6.8 | – |
| COC(=O)c1ccccc1S(=O)(=O)NCCCCCCNc1nsc2nccn12 [2-COOMe-Ph, N-[6-(imidazo[1,2-d][1,2,4]thiadiazol-3-ylamino)hexyl]2-methoxycarbonylbenzenesulfonamide] | 3.2 | – |
| O=S(=O)(NCCCCCCNc1nsc2nccn12)c1ccc(F)cc1Cl [2-Cl-4-F-Ph, 2-chloro-4-fluoro-N-[6-(imidazo[1,2-d][1,2,4]thiadiazol-3-ylamino)hexyl]benzenesulfonamide] | 0.6 | – |
| O=S(=O)(NCCCCCCNc1nsc2nccn12)c1c(F)ccc(Br)c1F [2-F-3-Br-6-F-Ph, 3-bromo-2,6-difluoro-N-[6-(imidazol[1,2-d][1,2,4]thiadiazol-3-ylamino)hexyl]benzenesulfonamide] | 2.1 | – |
| COc1cc(C)c(S(=O)(=O)NCCCCCCNc2nsc3nccn23)c(C)c1C [2-Me-3-Me-4-OMe-6-Me-Ph, N-[6-(imidazo[1,2-d][1,2,4]thiadiazol-3-ylamino)hexyl]-4-methoxy-2,3,6-trimethylbenzenesulfonamide] | 14 | – |
| Cc1cc(S(=O)(=O)NCCCCCCNc2nsc3nccn23)c(C)cc1Cl [2-Me-4-C1-5-Me-Ph, 4-chloro-2,5-dimethyl-N-[6-(imidazol[1,2-d][1,2,4]thiadiazol-3-ylamino)hexyl]benzenesulfonamide] | 0.95 | – |
| O=[N+]([O-])c1cc(C(F)(F)F)ccc1S(=O)(=O)NCCCCCCNc1nsc2nccn12 [2-NO2-4-CF3-Ph, N-[6-(imidazo[1,2-d][1,2,4]thiadiazol-3-ylamino)hexyl]-2-nitro-4-trifluorobenzenesulfonamide] | 0.77 | – |
| O=S(=O)(NCCCCCCNc1nsc2nccn12)c1ccc(Br)cc1OC(F)(F)F [2-OCF3-4-Br, 4-bromo-N-[6-(imidazo[1,2-d][1,2,4]thiadiazol-3-ylamino)hexyl]-2-(trifluoromethoxy)benzenesulfonamide] | 0.42 | – |
| COc1cc(C)ccc1S(=O)(=O)NCCCCCCNc1nsc2nccn12 [2-OMe-4-Me-Ph, N-[6-(imidazol[1,2-d][1,2,4]thiadiazol-3-ylamino)hexyl]-2-methoxy-4-methylbenzenesulfonamide] | 24 | – |
| COc1ccc(Br)cc1S(=O)(=O)NCCCCCCNc1nsc2nccn12 [2-OMe-5-Br-Ph, 5-bromo--N-[6-(imidazo[1,2-d][1,2,4]thiadiazol-3-ylamino)hexyl]-2-methoxybenzenesulfonamide] | 3.7 | – |
| COc1ccc(OC)c(S(=O)(=O)NCCCCCCNc2nsc3nccn23)c1 [2-OMe-5-Ome-Ph, 2,5-dimethoxy-N-[6-(imidazo[1,2-d][1,2,4]thiadiazol-3-ylamino)hexyl]benzenesulfonamide] | > 5 | – |
| O=S(=O)(NCCCCCCNc1nsc2nccn12)c1ccc2ccccc2c1 [2-naphthyl, N-[6-(imidazo[1,2-d][1,2,4]thiadiazol-3-ylamino)hexyl]naphthalene-2-sulfonamide] | 1.3 | – |
| NC(=O)CCCN(CCCCCCNc1nsc2nccn12)S(=O)(=O)c1cccc2ccccc12 [3 / NH2 / 1-naphthyl, 4-[[6-(imidazo[1,2-d][1,2,4]thiadiazol-3-ylamino)hexyl](1-naphthylsulfonyl)amino]butanamide] | 8.6 | – |
| O=S(=O)(NCCCCCCNc1nsc2nccn12)c1cccc(C(F)(F)F)c1 [3-CF3-Ph, N-[6-(imidazo[1,2-d][1,2,4]thiadiazol-3-ylamino)hexyl]-3-trifluoromethylbenzenesulfonamide] | 4.7 | – |
| O=C(O)c1cccc(S(=O)(=O)NCCCCCCNc2nsc3nccn23)c1 [3-COOH-Ph, 3-carboxy-N-[6-(imidazo[1,2-d][1,2,4]thiadiazol-3-ylamino)hexyl]benzenesulfonamide] | 13.7 | – |
| O=S(=O)(NCCCCCCNc1nsc2nccn12)c1ccc(Br)cc1 [4-Br-Ph, 4-bromo-N-[6-(imidazo[1,2-d][1,2,4]thiadiazol-3-ylamino)hexyl]benzenesulfonamide] | 0.93 | – |
| N#Cc1ccc(S(=O)(=O)NCCCCCCNc2nsc3nccn23)cc1 [4-CN-Ph, 4-cyano-N-[6-(imidazo[1,2-d][1,2,4]thiadiazol-3-ylamino)hexyl]benzenesulfonamide] | 1.6 | – |
| O=C(O)c1ccc(S(=O)(=O)NCCCCCCNc2nsc3nccn23)cc1 [4-COOH-Ph, 4-carboxy-N-[6-(imidazo[1,2-d][1,2,4]thiadiazol-3-ylamino)hexyl]benzenesulfonamide] | 11.4 | – |
| COc1ccc(S(=O)(=O)NCCCCCCNc2nsc3nccn23)cc1 [4-OMe-Ph, N-[6-(imidazo[1,2-d][1,2,4]thiadiazol-3-ylamino)hexyl]-4-methoxybenzenesulfonamide] | 1.4 | – |
